In patent US20250179481A1, “COMPOSITIONS AND METHODS FOR TARGETING, EDITING, OR MODIFYING GENES” (Celyntra Therapeutics SA, priority 2021, published 2025):

Each substance was assayed on human genes (assay: Editing efficiency of tested crRNAs / guide nucleic acids (Tables 7-10) detected in human cells). Details: Target Gene LAG3; tested crRNAs targeting human genes.
Type: cell-based

Row | Substance | % Indel [%]
1 | gLAG3_6: spacer targeting LAG3, SEQ ID NO 153, GGGTGCATACCTGTCTGGCTG (chemistry not given here) | 52.4

Same assay, conditions: Target Gene PD; tested crRNAs targeting human genes

Row | Substance | % Indel [%]
2 | gPD_23: spacer targeting PDCD1, SEQ ID NO 210, TCTGCAGGGACAATAGGAGCC (chemistry not given here) | 57.6

Same assay, conditions: Target Gene PTPN6; tested crRNAs targeting human genes

Row | Substance | % Indel [%]
3 | gPTPN6_9 (guide CCTGACGCTGCCTTCTCTAGG; chemistry not given here) | 0.8
4 | gPTPN6_8 (guide AGGTGGATGATGGTGCCGTCG; chemistry not given here) | 3.5
5 | gPTPN6_6: spacer targeting PTPN6, SEQ ID NO 249, TATGACCTGTATGGAGGGGAG (chemistry not given here) | 83.4

Same assay, conditions: Target Gene TIGIT; tested crRNAs targeting human genes

Row | Substance | % Indel [%]
6 | gTIGIT_2: spacer targeting TIGIT, SEQ ID NO 302, AGGCCTTACCTGAGGCGAGGG (chemistry not given here) | 81.7
7 | gTIGIT_23 (guide TTTGTTTTTAGAAGAAAGCCC; chemistry not given here) | 1
8 | gTIGIT_7 (guide TGCAGAGAAAGGTGGCTCTAT; chemistry not given here) | 6
9 | gTIGIT_25 (guide TAGAAGAAAGCCCTCAGAATC; chemistry not given here) | 1.2
10 | gTIGIT_18 (guide GTCCTCCCTCTAGTGGCTGAG; chemistry not given here) | 72.4
11 | gTIGIT_29 (guide TGCCTGGACACAGCTTCCTGG; chemistry not given here) | 0.3
12 | gTIGIT_1 (guide CCTGAGGCGAGGGGAGCCTGC; chemistry not given here) | 0.2
13 | gTIGIT_11 (guide GGGTGGCACATCTCCCCATCC; chemistry not given here) | 9.7
14 | gTIGIT_24 (guide TTTTTAGAAGAAAGCCCTCAG; chemistry not given here) | 0.4
15 | gTIGIT_10 (guide TAATGCTGACTTGGGGTGGCA; chemistry not given here) | 1.6
16 | gTIGIT_17 (guide CTCCAGCAGGAATACCTGAGC; chemistry not given here) | 0.8
17 | gTIGIT_19 (guide GAGCCATGGCCGCGACGCTGG; chemistry not given here) | 0.9
18 | gTIGIT_3 (guide GTCCTCTTCCCTAGGAATGAT; chemistry not given here) | 1.3
19 | gTIGIT_9 (guide TGGCCATTTGTAATGCTGACT; chemistry not given here) | 0.8
20 | gTIGIT_13 (guide AAGGATCGAGTGGCCCCAGGT; chemistry not given here) | 0.2
21 | gTIGIT_6 (guide CTCTGCAGAAATGTTCCCCGT; chemistry not given here) | 0.1
22 | gTIGIT_4 (guide TATTGTGCCTGTCATCATTCC; chemistry not given here) | 1
23 | gTIGIT_14 (guide TGCATCTATCACACCTACCCT; chemistry not given here) | 1.4
24 | gTIGIT_26 (guide CACAGAATGGATTCTGAGGGC; chemistry not given here) | 0.3
25 | gTIGIT_12 (guide AAGGATGGGGAGATGTGCCAC; chemistry not given here) | 0.4
26 | gTIGIT_31 (guide AATGTCCTGAGTTACAGAAGC; chemistry not given here) | 0.5
27 | gTIGIT_28 (guide CTGGGGGTGAGGGAGCACTGG; chemistry not given here) | 0.5
28 | gTIGIT_16 (guide CTAGGACCTCCAGGAAGATTC; chemistry not given here) | 0.5
29 | gTIGIT_20 (guide TAGTCAACGCGACCACCACGA; chemistry not given here) | 0.1
30 | gTIGIT_22 (guide TAGTTTGTTTGTTTTTAGAAG; chemistry not given here) | 0.6
31 | gTIGIT_8 (guide TGCCGTGGTGGAGGAGAGGTG; chemistry not given here) | 0.3
32 | gTIGIT_5 (guide TCTGCAGAAATGTTCCCCGTT; chemistry not given here) | 1.1

Same assay, conditions: Target Gene TRAC; tested crRNAs targeting human genes

Row | Substance | % Indel [%]
33 | gTRAC089 (guide AACTCAGGGTTGAGAAAACAG; chemistry not given here) | 0.7
34 | gTRAC090 (guide ACTCAGGGTTGAGAAAACAGC; chemistry not given here) | 0.1

Same assay, conditions: tested crRNAs targeting human genes; target gene as given (Table 10)

Row | Substance | % Indel [%]
35 | gIL7R_3: spacer targeting IL7R, SEQ ID NO 1393, CAGGGGAGATGGATCCTATCT (chemistry not given here) | 87.87
36 | gCD247_12: spacer targeting CD247, SEQ ID NO 89, CTAGCAGAGAAGGAAGAACCC (chemistry not given here) | 70.64
37 | gTRBC2_17 (guide CCATGGCCATCAGCACGAGGG; chemistry not given here) | 1.75
38 | gTRBC2_14 (guide CCAGCAAGGGGTCCTGTCTGC; chemistry not given here) | 6.69
39 | gTUBB_2 (guide ACCATGAGGGAAATCGTGCAC; chemistry not given here) | 68.4
40 | gTUBB_3 (guide TTCTCTGTAGGTGGCAAATAT; chemistry not given here) | 18.67
41 | gCARD11_1: spacer targeting CARD11, SEQ ID NO 1388, TAGTACCGCTCCTGGAAGGTT (chemistry not given here) | 1.37
42 | gTRAC006: spacer targeting TRAC, SEQ ID NO 988, TGAGGGTGAAGGATAGACGCT (chemistry not given here) | 81.8
43 | gU6_2 (guide GATTTCTTGGCTTTATATATC; chemistry not given here) | 0.71
44 | gTRBC2_7 (guide CCCTGTTTTCTTTCAGACTGT; chemistry not given here) | 0.09
45 | gPLCG1_2: spacer targeting PLCG1, SEQ ID NO 1403, CCTTTCTGCGCTTCGTGGTGT (chemistry not given here) | 5.14
46 | gU6_3 (guide TTGGCTTTATATATCTTGTGG; chemistry not given here) | 2.83
47 | gDHODH_3 (guide TATGCTGAACACCTGATGCCG; chemistry not given here) | 74.94
48 | gTRBC2_16 (guide TATGCCGTGCTGGTCAGTGCC; chemistry not given here) | 0.2
49 | gU6_6 (guide TATATCTTGTGGAAAGGACGA; chemistry not given here) | 0.39
50 | gTRBC2_21 (guide GAGCTAGCCTCTGGAATCCTT; chemistry not given here) | 11.89
51 | gTRBC2_15 (guide CTAGGGAAGGCCACCTTGTAT; chemistry not given here) | 21.74
52 | gTRAC088 (guide GTCCTGAAGGTAGCTGTTTTC; chemistry not given here) | 0.1

Row | Substance | % Indel [%]
53 | gU6_5 (guide ATATATCTTGTGGAAAGGACG; chemistry not given here) | 0.39
54 | gTRAC087 (guide TCCTGAAGGTAGCTGTTTTCT; chemistry not given here) | 0.2
55 | gTRAC086 (guide CTCAACCCTGAGTTAAAACAC; chemistry not given here) | 0.2
56 | gTRAC085 (guide TCAACCCTGAGTTAAAACACA; chemistry not given here) | 0.5
57 | gTRAC084 (guide GACTTTTCCCAGCTGACAGAT; chemistry not given here) | 1.6
58 | gTRBC2_9 (guide TTTCAGACTGTGGCTTCACCT; chemistry not given here) | 0.24
59 | gTUBB_1 (guide AACCATGAGGGAAATCGTGCA; chemistry not given here) | 2.61
60 | gU6_1 (guide GTCCTTTCCACAAGATATATA; chemistry not given here) | 68.1
61 | gTRBC2_10 (guide CAGACTGTGGCTTCACCTCCG; chemistry not given here) | 0.16
62 | gDHODH_1 (guide TTGCAGAAGCGGGCCCAGGAT; chemistry not given here) | 0.6
63 | gTRBC2_18 (guide CCTAGCAAGATCTCATAGAGG; chemistry not given here) | 0.37
64 | gLCK1_3: spacer targeting LCK, SEQ ID NO 1401, ACCCATCAACCCGTAGGGATG (chemistry not given here) | 16.21
65 | gTRBC2_19 (guide CACAGGTCAAGAGAAAGGATT; chemistry not given here) | 1.58
66 | gTRBC2_13 (guide TCAACAGAGTCTTACCAGCAA; chemistry not given here) | 1.2
67 | gTRBC2_8 (guide CTTTCAGACTGTGGCTTCACC; chemistry not given here) | 0.24
68 | gDHODH_2 (guide TTGCAGAAGCGGGCCCAGGAT; chemistry not given here) | 0.59
69 | gU6_7 (guide TGGAAAGGACGAAACACCGTG; chemistry not given here) | 0.24
